Source: US7135477B2, “Heterocyclic compounds which inhibit leukocyte adhesion mediated by α4 integrins” (Elan Pharmaceuticals, Inc., priority 2002, dated 2006)

Assay: Cassette dosing and serum analysis for determination of bioavailability
Format: in vivo, rat
Conditions: male Sprague Dawley rats, oral cassette of 6 compounds as sodium salts, total dose 10 mg/kg, plasma at 4, 8 and 12 h, linear trapezoidal rule
Protocol: Cassette Dosing and Serum Analysis for Determination of Bioavailability
The cassette included 5 test articles and a standard compound, for a total dose of 10 mg/kg. Each compound/test article was converted to the sodium salt with equimolar 1 N NaOH and dissolved in water at 2 mg/mL. The cassette was prepared by mixing equal volumes of each of the six solutions. The cassette dosing solution was mixed well and then the pH was adjusted to 7.5–9. The dosing solution was prepared the day before the study and stirred overnight at room temperature.
Male Sprague Dawley (SD) rats from Charles River Laboratories, 6–8 weeks old were used in this screen. Rats were quarantined for at least one day and had continuous access to food and water. On the night before the administration of the cassette, the rats were fasted for approximately 16 h.
Four SD rats were assigned in each cassette. A single dose of the dosing solution was administered orally to each rat. The dosing volume (5 mL/kg) and time were recorded and rats were fed 2 h after dosing.
Blood samples were collected via cardiac puncture at the following time points: 4 h, 8 h and 12 h. Immediately prior to blood collection, rats were anesthetized with CO2 gas within 10–20 seconds. After the 12-h samples were collected, the rats were euthanized via CO2 asphyxiation followed by cervical dislocation.
Blood samples were kept in heparinized microtainer tubes under sub-ambient temperature (4° C.) before they were processed. Blood samples were centrifuged (10000 rpm for 5 minutes) and plasma samples were removed and stored in a −20° C. freezer until analyzed for drug levels. Drug levels in the plasma were analyzed using the following protocol for direct plasma precipitation.
The in vivo plasma samples were prepared in a 1.5 mL 96-well plate, by adding, in order, 100 μL of the test plasma, 150 μL of methanol, followed by vortexing for 10–20 seconds. 150 μL of 0.05 ng/μL of an Internal Standard in acetonitrile were added and vortexed for 30 seconds.
The standard curve samples were prepared in a 1.5 mL 96-well plate, by adding, in order, 100 μL of control mouse plasma, followed by 150 μL of methanol and vortexing for 10–20 seconds. 150 μL of 0.05 ng/μL of an Internal Standard in acetonitrile were added and vortexed for 30 seconds. The samples were spiked with 0–200 ng (10 concentrations) of the compound of interest in 50% methanol to obtain a standard curve range of 0.5 ng/mL–2,000 ng/mL. Again, the sample was vortexed for 30 seconds.
The samples were then spun for 20–30 minutes at 3000 rpm in an Eppendorf microfuge before 80–90% of supernatant was transferred into a clean 96-well plate. The organic solvent was then evaporated until the samples were dry (under N2 at 40° C./30–60 min (ZymarkTurbovap)).
The residue was then dissolved in […] mobile phase (50% CH3OH/0.1% TFA). LC/MS/MS was then run using a PE-Sciex API-3000 triple quadurpole mass spectrometer (SN0749707), Perkin-Elmer, Series200auto-sampler, and shimadzu 10A pump. Acquisition was done with PE-Sciex Analyst (v1.1) and data analysis and quantification were accomplished using PE-Sciex Analyst (v1.1). A 5–50 μL sample volume was injected onto a reverse phase ThermoHypersil DASH-18 column (Keystone 2.0×20 mm, 5 μm, PN: 8823025-701) using a mobile phase of 25% CH3OH, 0.1% TFA-100% CH3OH, 0.1% TFA. The run time was about 8 minutes at a flow rate of about 300 μL/minutes.
The Area Under the Curve (AUC) was calculated using the linear trapezoidal rule from t=0 to the last sampling time tx (see Handbook of Basic Pharmacokinetics, Wolfgang A. Ritschel and Gregory L. Kearns, 5th ed, 1999). AUC^0−tx=S((Cn+Cn+1)/2))·(tn+1−tn)[(μg/mL)h]

Question: For `CCN(CC)c1ncc(N(CC)S(=O)(=O)c2ccc(Cl)cc2)c(N[C@@H](Cc2ccc(OC(=O)N3CCCC3)cc2)C(=O)O)n1` [Example 1, N-(2-[N′,N′-diethylamino]-5-[N″-(4-chlorophenylsulfonyl)-N″-ethylamino]pyrimidin-4-yl)-4′-(pyrrolidin-1-ylcarbonyloxy)-L-phenylalanine], which “AUC (average AUC 0→12 h)” value is on record?
Answer: The value was 14.798 (μg/mL)h.

Question: With `CCN(CC)c1ncc(N(CC)S(=O)(=O)c2ccc(F)cc2)c(N[C@@H](Cc2ccc(OC(=O)N3CCCC3)cc2)C(=O)O)n1` [Example 2, N-(2-[N′,N′-diethylamino]-5-[N″-(4-fluorophenylsulfonyl)-N″-ethylamino]pyrimidin-4-yl)-4′-(pyrrolidin 1-ylcarbonyloxy)-L-phenylalanine] as the compound, how does the “AUC (average AUC 0→12 h)” value read?
Answer: The value was 15.971 (μg/mL)h.

Question: With `CCN(CC)c1ncc(N(C)S(=O)(=O)c2ccc(F)cc2)c(N[C@@H](Cc2ccc(OC(=O)N3CCCC3)cc2)C(=O)O)n1` [Example 3, N-(2-[N′,N′-diethylamino]-5-[N″-(4-fluorophenylsulfonyl)-N″-methylamino]pyrimidin-4-yl)-4′-(pyrrolidin-1-ylcarbonyloxy)-L-phenylalanine] as the compound, how does the “AUC (average AUC 0→12 h)” value read?
Answer: Its value is 22.271 (μg/mL)h.

Question: With `CCN(CC)c1ncc(N(C)S(=O)(=O)c2ccc(Cl)cc2)c(N[C@@H](Cc2ccc(OC(=O)N3CCCC3)cc2)C(=O)O)n1` [Example 4] as the compound, how does the “AUC (average AUC 0→12 h)” value read?
Answer: Its value is 13.829 (μg/mL)h.

Question: For `CCN(CC)c1ncc(N(C)S(=O)(=O)c2ccc(F)cc2)c(N[C@@H](Cc2ccc(OC(=O)N3CCCCC3)cc2)C(=O)O)n1` [Example 5, N-(2-[N′,N′-diethylamino]-5-[N″-(4-fluorophenylsulfonyl)-N″-methylamino]pyrimidin-4-yl)-4′-(piperidin-1-ylcarbonyloxy)-L-phenylalanine], which “AUC (average AUC 0→12 h)” value is on record?
Answer: The value was 2.1654 (μg/mL)h.

Question: Which “AUC (average AUC 0→12 h)” value does the source give for `CCN(CC)c1ncc(N(CC)S(=O)(=O)c2ccc(F)cc2)c(N[C@@H](Cc2ccc(OC(=O)N3CCCCC3)cc2)C(=O)O)n1` [Example 6, N-(2-[N′,N′-diethylamino]-5-[N″-(4-fluorophenylsulfonyl)-N″-ethylamino]pyrimidin-4-yl)-4′-(piperidin-1-ylcarbonyloxy)-L-phenylalanine] here?
Answer: The value was 0.5125 (μg/mL)h.

Question: With `CCN(CC)c1ncc(N(CC)S(=O)(=O)c2ccc(F)cc2)c(N[C@@H](Cc2ccc(OC(=O)N3CCC3)cc2)C(=O)O)n1` [Example 7, N-(2-[N′,N′-diethylamino]-5-[N″-(4-fluorophenylsulfonyl)-N″-ethylamino]pyrimidin-4-yl)-4-(azetidin-1-ylcarbonyloxy)-L-phenylalanine] as the compound, how does the “AUC (average AUC 0→12 h)” value read?
Answer: The value was 0.8979 (μg/mL)h.

Question: For `CCN(CC)c1ncc(N(C)S(=O)(=O)c2ccc(F)cc2)c(N[C@@H](Cc2ccc(OC(=O)N3CCC3)cc2)C(=O)O)n1` [Example 8, N-(2-[N′,N′-diethylamino]-5-[N″-(4-fluorophenylsulfonyl)-N″-methylamino]pyrimidin-4-yl)-4′-(azetidin-1-ylcarbonyloxy)-L-phenylalanine], which “AUC (average AUC 0→12 h)” value is on record?
Answer: The value was 2.4082 (μg/mL)h.

Question: Which “AUC (average AUC 0→12 h)” value does the source give for `CCN(CC)c1ncc(N(C)S(=O)(=O)c2ccc(Cl)cc2)c(N[C@@H](Cc2ccc(OC(=O)N3CCC3)cc2)C(=O)O)n1` [Example 9, N-(2-[N′,N′-diethylamino]-5-[N″-(4-chlorophenylsulfonyl)-N″-methylamino]pyrimidin-4-yl)-4′-(azetidin-1-ylcarbonyloxy)-L-phenylalanine] here?
Answer: Its value is 2.0774 (μg/mL)h.

Question: For `CCN(CC)c1ncc(N(CC)S(=O)(=O)c2ccc(Cl)cc2)c(N[C@@H](Cc2ccc(OC(=O)N3CCC3)cc2)C(=O)O)n1` [Example 10, N-(2-[N′,N′-diethylamino]-5-[N″-(4-chlorophenylsulfonyl)-N″-ethylamino]pyrimidin-4-yl)-4′-(azetidin-1-ylcarbonyloxy)-L-phenylalanine], which “AUC (average AUC 0→12 h)” value is on record?
Answer: Its value is 2.1113 (μg/mL)h.

Question: With `CCN(CC)c1ncc(N(C)S(=O)(=O)c2ccc(F)cc2F)c(N[C@@H](Cc2ccc(OC(=O)N3CCCC3)cc2)C(=O)O)n1` [Example 11, N-(2-[N′,N′-diethylamino]-5-[N″-(2,4-difluorophenylsulfonyl)-N″-methylamino]pyrimidin-4-yl)-4′-(pyrrolidin-1-ylcarbonyloxy)-L-phenylalanine] as the compound, how does the “AUC (average AUC 0→12 h)” value read?
Answer: The value was 14.818 (μg/mL)h.

Question: With `CCN(CC)c1ncc(N(CC)S(=O)(=O)c2ccc(F)cc2F)c(N[C@@H](Cc2ccc(OC(=O)N3CCCC3)cc2)C(=O)O)n1` [Example 12, N-(2-[N′,N′-diethylamino]-5-[N″-(2,4-difluorophenylsulfonyl)-N″-ethylamino]pyrimidin-4-yl)-4′-(pyrrolidin-1-ylcarbonyloxy)-L-phenylalanine] as the compound, how does the “AUC (average AUC 0→12 h)” value read?
Answer: Its value is 4.7816 (μg/mL)h.

Question: For `CCN(CC)c1ncc(N(C)S(=O)(=O)c2ccc(F)cc2F)c(N[C@@H](Cc2ccc(OC(=O)N3CCC3)cc2)C(=O)O)n1` [Example 13, N-(2-[N′,N′-diethylamino]-5-[N″-(2,4-difluorophenylsulfonyl)-N″-methylamino]pyrimidin-4-yl)-4′-(azetidin-1-ylcarbonyloxy)-L-phenylalanine], which “AUC (average AUC 0→12 h)” value is on record?
Answer: Its value is 1.283 (μg/mL)h.

Question: For `CCN(CC)c1ncc(N(CC)S(=O)(=O)c2ccc(F)cc2F)c(N[C@@H](Cc2ccc(OC(=O)N3CCC3)cc2)C(=O)O)n1` [Example 14, N-(2-[N′N′-diethylamino]-5-[N″-(2,4-difluorophenylsulfonyl)-N″ethylamino]pyrimidin-4-yl)-4′-(azetidin-1-ylcarbonyloxy)-L-phenylalanine], which “AUC (average AUC 0→12 h)” value is on record?
Answer: Its value is 0.3566 (μg/mL)h.

Question: With `C#CCN(c1cnc(N(CC)CC)nc1N[C@@H](Cc1ccc(OC(=O)N2CCCC2)cc1)C(=O)O)S(=O)(=O)c1ccc(F)cc1` [Example 15, N-(2-[N′,N′-diethylamino]-5-[N″-(4-fluorophenylsulfonyl)-N″-propargylamino]pyrimidin4-yl)-4′-(pyrrolidin-1-ylcarbonyloxy)-L-phenylalanine] as the compound, how does the “AUC (average AUC 0→12 h)” value read?
Answer: Its value is 90.317 (μg/mL)h.

Question: Which “AUC (average AUC 0→12 h)” value does the source give for `C#CCN(c1cnc(N(CC)CC)nc1N[C@@H](Cc1ccc(OC(=O)N2CCCC2)cc1)C(=O)O)S(=O)(=O)c1ccc(F)cc1F` [Example 16, N-(2-[N′,N′-diethylamino]-5-[N″-(2,4-difluorophenylsulfonyl)-N″-propargylamino]pyrimidin-4-yl)-4′-(pyrrolidin-1-ylcarbonyloxy)-L-phenylalanine] here?
Answer: The value was 23.808 (μg/mL)h.

Question: Which “AUC (average AUC 0→12 h)” value does the source give for `C#CCN(c1cnc(N(CC)CC)nc1N[C@@H](Cc1ccc(OC(=O)N2CCC2)cc1)C(=O)O)S(=O)(=O)c1ccc(F)cc1F` [Example 17, N-(2-[N′,N′-diethylamino]-5-[N″-(2,4-difluorophenylsulfonyl)-N″-propargylamino]pyrimidin-4-yl)-4′-(azetidin-1-ylcarbonyloxy)-L-phenylalanine] here?
Answer: Its value is 0.8628 (μg/mL)h.

Question: For `C#CCN(c1cnc(N(CC)CC)nc1N[C@@H](Cc1ccc(OC(=O)N2CCC2)cc1)C(=O)O)S(=O)(=O)c1ccc(F)cc1` [Example 18, N-(2-[N′,N′-diethylamino]-5-[N″-(4-fluorophenylsulfonyl)-N″-propargylamino]pyrimidin-4-yl)-4′(azetidin-1-ylcarbonyloxy)-L-phenylalanine], which “AUC (average AUC 0→12 h)” value is on record?
Answer: Its value is 4.7528 (μg/mL)h.
